This assay has as its target T1, recombinant human GST-Syk (Homo sapiens, UniProt P43405).
T1 construct: purchased Carna Biosciences 08-176
Description: Homogeneous Time-Resolved Fluorescence (HTRF) assay for the recombinant human Syk enzyme. Type of assay: biochemical. The following applies: recombinant human GST-Syk 5 pM, ATP 25 μM, 10-dose titration 10 μM to 0.508 nM; read-out: rhSYK Activity IC50. The essentials: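 Detection used time-resolved fluorescence 30 min after adding a quench mix (40 mM EDTA, 15 mM Tris pH 7.5, 0.01% Tween 20) containing 2 nM Europium anti-pTyr antibody and 70 nM streptavidin-APC. This followed 45 min of room-temperature peptide phosphorylation by recombinant GST-tagged human Syk.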
In general terms: TR-FRET usually uses a lanthanide donor and a delayed reading to cut background.
The term IC50 denotes the concentration at which inhibition is half-maximal. Turning to `Cc1cc(Nc2nccc(C(F)F)n2)cc(-c2cn(CC3OC(=O)NC34CC4)nn2)c1` (single isomer, unassigned) [Example 7.18, 7-((4-(3-((4-(difluoromethyl)pyrimidin-2-yl)amino)-5-methylphenyl)-1H-1,2,3-triazol-1-yl)methyl)-6-oxa-4-azaspiro[2.4]heptan-5-one], the IC50 stood at 0.0117 µM.
Next, `Cc1cc(Nc2cc(C(F)F)ccn2)nc(-c2cn(CC3CNC(=O)O3)nn2)c1` (single isomer, unassigned) [Example 7.12, 5-((4-(6-((4-(difluoromethyl)pyridin-2-yl)amino)-4-methylpyridin-2-yl)-1H-1,2,3-triazol-1-yl)methyl)oxazolidin-2-one]: 0.002 µM; `Cc1cc(Nc2cc(C(F)F)ccn2)nc(-c2cn(CC3CNC(=O)O3)nn2)c1` (single isomer, unassigned) [Example 7.13, 5-((4-(6-((4-(difluoromethyl)pyridin-2-yl)amino)-4-methylpyridin-2-yl)-1H-1,2,3-triazol-1-yl)methyl)oxazolidin-2-one]: 0.002 µM; `C=C(C)Cn1cc(-c2cc(C)cc(Nc3cc(C(F)(F)F)ccn3)n2)nn1` [Example 5.40, 4-methyl-6-[1-(2-methylprop-2-en-1-yl)-1H-1,2,3-triazol-4-yl]-N-[4-(trifluoromethyl)pyridin-2-yl]pyridin-2-amine]: 0.0289 µM.
Next, `Cc1cc(Nc2cc(C(F)(F)F)ccn2)nc(-c2cn(-c3ccc(C(=O)O)cc3)nn2)c1` [Example 7.1, 4-(4-(4-Methyl-6-((4-(trifluoromethyl)pyridin-2-yl)amino)pyridin-2-yl)-1H-1,2,3-triazol-1-yl)benzoic acid]: 0.0111 µM; `Cc1cc(Nc2cc(C(F)(F)F)ccn2)nc(-c2cn(C3(CO)CCC3)nn2)c1` [Example 13.6, {1-[4-(4-methyl-6-{[4-(trifluoromethyl)pyridin-2-yl]amino}pyridin-2-yl)-1H-1,2,3-triazol-1-yl]cyclobutyl}methanol]: 0.0032 µM.
As for `Cc1cc(Nc2nccc(C(F)(F)F)n2)cc(-c2cn(CCN)nn2)c1` [Example 5.74, N-{3-[1-(2-aminoethyl)-1H-1,2,3-triazol-4-yl]-5-methylphenyl}-4-(trifluoromethyl)pyrimidin-2-amine], the IC50 was found to be 0.187 µM.
For `Cc1cc(Nc2cc(C(F)F)ccn2)nc(-c2cn(C(C)C(C)(O)CO)nn2)c1` (single isomer, unassigned) [Example 30.6, 3-[4-(6-{[4-(difluoromethyl)pyridin-2-yl]amino}-4-methylpyridin-2-yl)-1H-1,2,3-triazol-1-yl]-2-methylbutane-1,2-diol], the IC50 amounted to 0.0065 µM.
Next, `Cc1cc(Nc2nccc(C(F)(F)F)n2)cc(-n2cc(C3(O)CCC(C(N)=O)C(C)(C)C3)nn2)c1` (stereo not drawn) [Example 1.58, 4-hydroxy-2,2-dimethyl-4-[1-(3-methyl-5-{[4-(trifluoromethyl)pyrimidin-2-yl]amino}phenyl)-1H-1,2,3-triazol-4-yl]cyclohexanecarboxamide]: 0.0297 µM; `Cc1cc(Nc2nccc(C(F)(F)F)n2)cc(-c2cn(CC(=O)N3[C@H](C)COC[C@@H]3C)nn2)c1` [Example 5.65, N-[3-(1-{2-[(cis)-3,5-dimethylmorpholin-4-yl]-2-oxoethyl}-1H-1,2,3-triazol-4-yl)-5-methylphenyl]-4-(trifluoromethyl)pyrimidin-2-amine]: 0.122 µM.
Next, `Cc1cc(Nc2nccc(C(F)(F)F)n2)cc(-c2cn(C3COCC3O)nn2)c1` (single isomer, unassigned) [Example 4.8, 4-[4-(3-methyl-5-{[4-(trifluoromethyl)pyrimidin-2-yl]amino}phenyl)-1H-1,2,3-triazol-1-yl]tetrahydrofuran-3-ol]: 0.0351 µM.
Next, `Cc1cc(Nc2nccc(C(F)F)n2)cc(-c2cn(C3CCCC(O)C3O)nn2)c1` (single isomer, unassigned) [Example 25.2, 3-(4-(3-((4-(difluoromethyl)pyrimidin-2-yl)amino)-5-methylphenyl)-1H-1,2,3-triazol-1-yl)cyclohexane-1,2-diol]: 0.0073 µM.

(Values after patent US9586931B2 (Merck Sharp & Dohme Corp., priority 2012, dated 2017).)
